From patent publication US10473645B2, “Methods for identifying a receptor for a ligand and uses thereof” (UNIVERSITE DE GENEVE, priority 2014, dated 2019)

Columns and labels:
Test in all cases: OR transcript level by RT-qPCR after in vivo odorant exposure
Olfr1178 = system: Olfr1178; parameters: species or system mouse; details: 5% odorant, 5 hours
Description: (§1) In vivo exposure to odorant: Starting 48 h before experiments, mice were habituated to pure DMSO on a cotton ball. 200 μl were pipetted directly onto the cotton and placed in the cage, replacing any cotton that was already in the cage for nest-making purposes.
On the day of the experiment, mice receiving odorants were transferred to a different room, where they were exposed to a cotton ball on which 200 μl of odorant diluted in pure DMSO were deposited. Exposures started in the morning between 8 and 10 am (that is two hours after lights were on) and mice were killed and dissected between 1 and 3 pm. […]
RNA concentrations were determined using an Amersham Ultrospec® 3100 Pro spectrophotometer, and RNA quality was evaluated with an Agilent Technologies 2100 Bioanalyzer®. […]
qPCR Ct values were analyzed using an in-house developed Microsoft Excel® macro file. […] Ct values were converted to quantities relative to the maximum for each given gene. Selected reference genes were then analyzed for variance using the geNorm algorithm. […]
Adult C57BL/6 mice were exposed to 5% acetophenone for 5 hours, and the level of transcripts of odorant receptors' genes were measured by RT-qPCR on extracts of olfactory epithelia from these mice, as described in the materials and methods section.

olfr109 = system: olfr109; parameters: species or system mouse; key: The transcript downregulation of 21 out of the 26 olfactory receptor candidates obtained by RNAseq was confirmed by qPCR; false RNAseq positive candidates, namely OR candidates for which in fact mRNA was not downregulated following acetophenone exposure; details: 5% acetophenone exposure
Description: as §1
(§2) On the day of the experiment, mice receiving odorants were transferred to a different room, where they were exposed to a cotton ball on which 200 μl of odorant diluted in pure DMSO were deposited. Exposures started in the morning between 8 and 10 am (that is two hours after lights were on) and mice were killed and dissected between 1 and 3 pm. […] If a number of different odorants were tested in the same experiment, a different overpressurized room would always be used for each odorant to avoid odor cross-contamination.
(§3) After odorant exposure, mice were killed by cervical dislocation and immediately decapitated. The main olfactory epithelia (MOE), were harvested in their entirety and transferred to a tube containing 600 μl of lysis buffer and β-mercaptoethanol (RNAeasy kit, Qiagen, following the manufacturer protocol) and a 0.5 cm diameter steel ball, and then put on ice. Samples were then homogenized using a FastPrep®-24 instrument (MP Biomedicals) at 6 m/s for 30 s and left on ice. RNA extraction was performed on all samples in parallel using the Qiagen RNeasy Mini® kit following the manufacturer's instructions. Two DNase treatments were performed on all samples: first using the Qiagen RNase-Free DNase Set® and then using the Life Technologies Ambion DNase I® kit. RNA samples were then aliquoted and stored at −80° C.
(§4) RNA concentrations were determined using an Amersham Ultrospec® 3100 Pro spectrophotometer, and RNA quality was evaluated with an Agilent Technologies 2100 Bioanalyzer®. Each reverse transcription was performed with 0.5 μg RNA using the Takara Primescript® kit, in a final volume of 10 μl. Primers for reverse transcription were equal mixtures of poly-T nucleotides and random hexamers. Negative controls (omitting the reverse transcriptase enzyme) were performed for each sample. 1/14th of the cDNA preparation was used for each triplicated qPCR reaction.
(§5) qPCR Ct values were analyzed using an in-house developed Microsoft Excel® macro file. Triplicate values were compared and outliers (values with a difference higher than 0.5 Ct to their nearest neighbor) were discarded. The number of conditions with an outlying value was always less than 10% of the total number of conditions. Ct values were converted to quantities relative to the maximum for each given gene. Selected reference genes were then analyzed for variance using the geNorm algorithm. All values were normalized with the olfactory tissue-specific genes Omp and Adcy3. β-Actin was used as a non-tissue-specific reference gene to control for differences in dissection between samples.
(§6) Mice (n=6) were exposed to 5% acetophenone or to a “neutral” control condition for 5 hours. An olfactory cDNA library corresponding to each animal was deep sequenced and the ratios of odorant receptor mRNA concentrations relative to controls were plotted (FIG. 3). […] Based on transcriptional downregulation levels observed by RNAseq following acetophenone exposure, a list of 26 candidate responsive ORs was determined (FIG. 3), that reached 74% decrease (Olfr145) or even over 80% (Olfr169) relative to controls. […] The transcript downregulation of 21 out of the 26 olfactory receptor candidates obtained by RNAseq was confirmed by qPCR.

olfr1135 = system: olfr1135; parameters: species or system mouse; key: The transcript downregulation of 21 out of the 26 olfactory receptor candidates obtained by RNAseq was confirmed by qPCR; false RNAseq positive candidates, namely OR candidates for which in fact mRNA was not downregulated following acetophenone exposure; details: 5% acetophenone exposure
Description: as §1, §2, §3, §4, §5, §6

olfr1350 = system: olfr1350; parameters: species or system mouse; key: The transcript downregulation of 21 out of the 26 olfactory receptor candidates obtained by RNAseq was confirmed by qPCR; false RNAseq positive candidates, namely OR candidates for which in fact mRNA was not downregulated following acetophenone exposure; details: 5% acetophenone exposure
Description: as §1, §2, §3, §4, §5, §6

olfr1448 = system: olfr1448; parameters: species or system mouse; key: The transcript downregulation of 21 out of the 26 olfactory receptor candidates obtained by RNAseq was confirmed by qPCR; false RNAseq positive candidates, namely OR candidates for which in fact mRNA was not downregulated following acetophenone exposure; details: 5% acetophenone exposure
Description: as §1, §2, §3, §4, §5, §6

olfr1501 = system: olfr1501; parameters: species or system mouse; key: The transcript downregulation of 21 out of the 26 olfactory receptor candidates obtained by RNAseq was confirmed by qPCR; false RNAseq positive candidates, namely OR candidates for which in fact mRNA was not downregulated following acetophenone exposure; details: 5% acetophenone exposure
Description: as §1, §2, §3, §4, §5, §6

olfr229 = system: olfr229; parameters: species or system mouse; key: The transcript downregulation of 21 out of the 26 olfactory receptor candidates obtained by RNAseq was confirmed by qPCR; false RNAseq positive candidates, namely OR candidates for which in fact mRNA was not downregulated following acetophenone exposure; details: 5% acetophenone exposure
Description: as §1, §2, §3, §4, §5, §6

olfr378 = system: olfr378; parameters: species or system mouse; key: The transcript downregulation of 21 out of the 26 olfactory receptor candidates obtained by RNAseq was confirmed by qPCR; false RNAseq positive candidates, namely OR candidates for which in fact mRNA was not downregulated following acetophenone exposure; details: 5% acetophenone exposure
Description: as §1, §2, §3, §4, §5, §6

olfr736 = system: olfr736; parameters: species or system mouse; key: The transcript downregulation of 21 out of the 26 olfactory receptor candidates obtained by RNAseq was confirmed by qPCR; false RNAseq positive candidates, namely OR candidates for which in fact mRNA was not downregulated following acetophenone exposure; details: 5% acetophenone exposure
Description: as §1, §2, §3, §4, §5, §6

olfr745 = system: olfr745; parameters: species or system mouse; key: The transcript downregulation of 21 out of the 26 olfactory receptor candidates obtained by RNAseq was confirmed by qPCR; false RNAseq positive candidates, namely OR candidates for which in fact mRNA was not downregulated following acetophenone exposure; details: 5% acetophenone exposure
Description: as §1, §2, §3, §4, §5, §6

olfr750 = system: olfr750; parameters: species or system mouse; key: The transcript downregulation of 21 out of the 26 olfactory receptor candidates obtained by RNAseq was confirmed by qPCR; false RNAseq positive candidates, namely OR candidates for which in fact mRNA was not downregulated following acetophenone exposure; details: 5% acetophenone exposure
Description: as §1, §2, §3, §4, §5, §6

olfr901 = system: olfr901; parameters: species or system mouse; key: The transcript downregulation of 21 out of the 26 olfactory receptor candidates obtained by RNAseq was confirmed by qPCR; false RNAseq positive candidates, namely OR candidates for which in fact mRNA was not downregulated following acetophenone exposure; details: 5% acetophenone exposure
Description: as §1, §2, §3, §4, §5, §6

Compound: CC(=O)c1ccccc1 [acetophenone]
- Olfr1178 mRNA concentration increase, fold change (Olfr1178): 1.5 fold
- olfr109 candidate OR (RNAseq) confirmed by qPCR (olfr109): y
- olfr1135 candidate OR (RNAseq) confirmed by qPCR (olfr1135): n
- olfr1350 candidate OR (RNAseq) confirmed by qPCR (olfr1350): n
- olfr1448 candidate OR (RNAseq) confirmed by qPCR (olfr1448): y
- olfr1501 candidate OR (RNAseq) confirmed by qPCR (olfr1501): y
- olfr229 candidate OR (RNAseq) confirmed by qPCR (olfr229): y
- olfr378 candidate OR (RNAseq) confirmed by qPCR (olfr378): n
- olfr736 candidate OR (RNAseq) confirmed by qPCR (olfr736): y
- olfr745 candidate OR (RNAseq) confirmed by qPCR (olfr745): y
- olfr750 candidate OR (RNAseq) confirmed by qPCR (olfr750): n
- olfr901 candidate OR (RNAseq) confirmed by qPCR (olfr901): y
